Experimental data: US8911953B2, “TDF-related compounds and analogs thereof, analogs and bioactive fragments” (Thrasos Innovation, Inc., priority 2005, dated 2014)
“Also recorded” adds a separate entry of the source. Positions of bridges follow the written chain, without caps; N, C: chain ends. No end group written: not given here.

Columns and labels:
HK-2 cells = experiment: Cisplatin-induced apoptosis in HK-2 cells (Annexin V staining); type: cell-based, human; conditions: 10 uM cisplatin, 500 uM compound, prophylactic or therapeutic
Experimental: Apoptosis and cell viability are quantified using AnnexinV-FITC and propidium iodide staining of HK-2 cells following cisplatin treatment. Immortalized PTEC-derived HK-2 cells (ATCC number CRL-2190) are cultured in serum-free keratinocyte medium (GIBCO number 17005-042) supplemented with EGF and BPE for 48 hours (Ryan et al. 1994 Kidney Int 45:48-57). Medium is aspirated and cells are washed with PBS and incubated in the dark for 15 min at room temperature with 10 μl of media binding agent and 1.25 μl of FITC conjugated AnnexinV. Propidium iodide (10 μl) is added, and samples are analyzed immediately. Quantification of Annexin V-FITC and propidium iodide signals is performed by fluorescence microscopy (Axiovert 135; Carl Zeiss). Phase contrast images are observed using transmitted light. Apoptotic cells show cytoplasmic staining and viable cells remain unstained (FIG. 17).

[1] = system: cisplatin-treated Sprague-Dawley rats; experiment: Rat cisplatin model of acute kidney injury; type: in vivo; conditions: for ICAM-1 in kidney sections: anti-ICAM-1 staining; for ICAM-1 in kidney sections / proliferating cells / cellular regeneration (PCNA) / macrophages accumulating in the kidneys: b674: 2.8 mg/kg bw; for proliferating cells / cellular regeneration (PCNA): anti-PCNA staining; for macrophages accumulating in the kidneys: macrophage-specific marker
Text: The rat cisplatin model has been studied extensively and is considered a relevant model for human acute kidney injury. Kidneys from cisplatin-treated animals show little evidence of cell proliferation. In contrast, animals that are protected or are able to recover from the nephrotoxic effects of cisplatin treatment show proliferation as detected by anti-proliferating cell nuclear antigen or PCNA antibodies. This model provides a mechanism for identifying agents that can protect the kidney from inflammatory cytokine-mediated injury, as well as, in repairing organ damage. Macrophages infiltrate the kidneys of animals treated with cisplatin and this early marker of nephropathy can be detected using anti CD-68 antibodies. Agents that decrease the number of macrophages in kidneys and prevent inflammatory cell-mediated damage associated with cisplatin treatment can be detected using immuno-histological analysis. Kidney sections treated with agents that show increased expression of α-actin in smooth muscle cells (SMC) are indicative of protecting the in integrity of SMC and alleviating injurious damage to the kidney.
Male Sprague-Dawley rats (˜250 gm) are injected ip with 5 mg/kg cisplatin (1 mg/ml in water) at time zero to induce acute renal failure. In this model, clinical signs (rise in serum creatinine) peaks at 4 to 5 days. The test compound and control substances were administered iv via the tail vein as 0.5 ml slow bolus injections. The negative control substance was the vehicle (PBS pH 7.2+5% Mannitol), while the positive control therapy was recombinant human mature BMP-7 (BMP-7 or TDF-1). The end points are serum creatinine and BUN levels and histology.
TDFRP Compound (SEQ ID NO:45) was tested in male Sprague-Dawley rats (250 gm to 300 gm) to establish the dose range and the extent to which the compound is able to prophylactically and therapeutically ameliorate the renal toxic effects of cisplatin. The cisplatin dosing level was the chemotherapeutic level used in humans, 40 ug/kg bw. The end points were the level of creatinine in serum and kidney histology. […]
A stock solution (70 mg/ml) of TDFRP (SEQ ID NO:45) was made by dissolving it in 20 mM Acetate (ph 4.2). The stock solution was further diluted into phosphate buffered saline (PBS, pH 7.2) plus 5% Mannitol to compound concentrations of 14 mg/ml (28 mg/kg dose), 1.4 mg/ml (2.8 mg/kg dose) and 0.14 mg/ml (0.28 mg/kg dose).
Cisplatin was administered via i.p. injection (40 ug/kg bw) at time zero. Administration of therapeutic dosing of the compound, the BMP-7 positive control and vehicle negative control were by slow bolus i.v. injection through the tail vein at five time points: 2 hours before the administration of cisplatin, then at 24 hours, 48 hours, 72 hours and 96 hours post cisplatin administration. Blood samples were collected through the tail vein at time points of 0, 24, 48, 72 and 96 hours. At seven day sample was collected by exsanguination at sacrifice. Serum was prepared from the blood samples and analyzed for creatinine concentration. The serum concentration of creatinine, a byproduct of muscle activity that is released into the blood stream and cleared through the kidneys, is a marker of kidney function that tends to rise when kidney function becomes severely compromised (FIG. 21).
Upon sacrifice at seven days, the kidneys were harvested, fixed in formalin and imbedded in paraffin. They were then sagitally sectioned and stained in H&E stain. Kidney sections were also stained with anti-bodies against proliferating cell nuclear antigen (PCNA) (to identify sites of cell regeneration), macrophages, I-CAM-1, and smooth muscle. Also collected at sacrifice were tissues at and around the injection site (FIGS. 22, 25, 26).

[2] = system: renal tubular epithelial cells; conditions: 100 ng/ml, 48 hours; cited from earlier work

For “CYFDDSSNVLCKKYRS (disulfide 1-11 (inferred); not fully specified) [SEQ ID NO:45]”, the cisplatin-induced apoptosis (HK-2 cells) was “inhibits”, the “tubule structure of the kidney (H&E sections)” value ([1]; 2.8 mg/kg b.w.) was “improved” and the “cisplatin-induced inflammation of the kidney cortex” value ([1]; 2.8 mg/kg bw) was “significantly reduced”. The smooth muscle loss ([1]; 2.8 mg/kg bw) was “reduced”, the “serum creatinine at the highest dose” value ([1]; 28 mg/kg bw i.v.) was “more efficacious than the positive control; also recorded: return closer to base-line levels” and the “cisplatin-induced level of creatinine in serum” value ([1]; 0.28, 2.8 and 28 mg/kg bw i.v.) was “reduces”. For the same molecule, the “ICAM-1 in kidney sections” value [1] was “reduced”, the “ICAM-1 in kidney sections” value ([1]; listed as SEQ ID NO 45) was “less ICAM-positive material” and the “proliferating cells / cellular regeneration (PCNA)” value [1] was “increased the degree of cellular regeneration”. For the same molecule, the “proliferating cells / cellular regeneration (PCNA)” value ([1]; listed as SEQ ID NO 45) was “Proliferating cells are observed”, the “macrophages accumulating in the kidneys” value [1] was “reduced” and the “macrophages accumulating in the kidneys” value ([1]; listed as SEQ ID NO 45) was “less macrophages”. The “nephrotoxic effects of cisplatin exposure” value ([1]; rat, in vivo) was “reduce or ameliorate” and the “renal tubular morphology (tubular atrophy, necrosis and dilation)” value ([1]; rat, in vivo) was “improved the morphology and structure of the kidney tubules”.

B1: BMP-7: recombinant human mature BMP-7 (BMP-7 or TDF-1), positive control therapy (protein)
chain: STGSKQRSQNRSKTPKNQEALRMANVAENSSSDQRQACKKHELYVSFRDLGWQDWIIAPEGYAAYYCEGECAFPLNSYMNATNHAIVQTLVHFINPETVPKPCCAPTQLNAISVLYFDDSSNVILKKYRNMVVRACGCH
In the case of B1, the “peak serum creatinine levels in response to cisplatin” value ([1]; BMP-7 30 ug/kg bw and 200 ug/kg bw) is given as “lower peak serum creatinine levels”, the “renal tubular morphology (tubular atrophy, necrosis and dilation)” value ([1]; rat, in vivo) is given as “Improvement of Renal Tubular Morphology” and the “TGF-beta1 induced EMT” value [2] is given as “reverses”.
